Reference: the NIST ThermoML archive (doi:10.1021/acs.jced.8b00213)
Numbers after ± are expanded uncertainties.

What was measured:
[1] = refractive index (Na D-line) (dimensionless); xn = mol fraction of the nth substance listed; details: 100 kPa, Liquid, Standard Abbe refractometry, x1 = 0.25
[2] = xn = mol fraction of the nth substance listed; details: 100 kPa, Liquid, x1 = 0.25; for electrical conductivity: Alternating current cell with electrodes; for viscosity: Falling or rolling sphere viscometry; for speed of sound: Single path-length method; for mass density: Vibrating tube method

C[N+](C)(C)Cc1ccccc1.[Cl-] [trimethylbenzylammonium chloride] + OCCO
Details	electrical conductivity, [2] [S/m]	mass density, [2] [kg/m3]	refractive index, [1]	speed of sound, [2] [m/s]	viscosity, [2] [mPa·s]
283.15 K	0.263 ± 0.011	1110.06 ± 11	1.4995 ± 0.0011	1856.7 ± 3.9	101.9 ± 3.1
288.15 K	0.32 ± 0.013	1107 ± 11	1.498 ± 0.0011	1843.6 ± 3.9	76.1 ± 1.9
293.15 K	0.391 ± 0.016	1103.95 ± 11	1.4966 ± 0.0011	1830.8 ± 3.9	58.2 ± 1.3
298.15 K	0.461 ± 0.018	1100.92 ± 11	1.4951 ± 0.0011	1818 ± 3.9	45.3 ± 1
303.15 K	0.552 ± 0.022	1097.89 ± 11	1.4935 ± 0.0011	1805.3 ± 3.8	35.9 ± 0.8
308.15 K	0.643 ± 0.026	1094.87 ± 11	1.4921 ± 0.0011	1792.7 ± 3.8	29 ± 0.6
313.15 K	0.75 ± 0.03	1091.85 ± 11	1.4907 ± 0.0011	1780.2 ± 3.8	23.9 ± 0.5
318.15 K	0.872 ± 0.035	1088.84 ± 11	1.4893 ± 0.0011	1767.8 ± 3.8	19.9 ± 0.4
323.15 K	0.997 ± 0.04	1085.83 ± 11	1.4878 ± 0.0011	1755.4 ± 3.7	16.8 ± 0.4
328.15 K	1.12 ± 0.045	1082.83 ± 11	1.4864 ± 0.0011	1743 ± 3.7	14.3 ± 0.3
333.15 K	1.25 ± 0.05	1079.82 ± 11	1.4849 ± 0.0011	1730.7 ± 3.7	12.3 ± 0.3
338.15 K	1.41 ± 0.056	1076.82 ± 11	1.4835 ± 0.0011	1718.5 ± 3.7	10.7 ± 0.2
343.15 K	1.56 ± 0.063	1073.83 ± 11	1.482 ± 0.0011	1706.6 ± 3.6	9.5 ± 0.2

CCCC[N+](CCCC)(CCCC)Cc1ccccc1.[Cl-] [benzyltributylammonium chloride] + OCCOCCO
Details	electrical conductivity, [2] [S/m]	mass density, [2] [kg/m3]	refractive index, [1]	speed of sound, [2] [m/s]	viscosity, [2] [mPa·s]
283.15 K	0.019 ± 0.001	1063.94 ± 11	1.4957 ± 0.0011	1706.8 ± 3.6	961.86 ± 96
288.15 K	0.025 ± 0.001	1060.76 ± 11	1.4945 ± 0.0011	1689.5 ± 3.6	644.25 ± 56
293.15 K	0.032 ± 0.001	1057.65 ± 11	1.4929 ± 0.0011	1673.2 ± 3.6	433.54 ± 32
298.15 K	0.04 ± 0.002	1054.57 ± 11	1.4909 ± 0.0011	1658.1 ± 3.5	310.37 ± 19
303.15 K	0.052 ± 0.002	1051.5 ± 11	1.4893 ± 0.0011	1643.5 ± 3.5	224.9 ± 11
308.15 K	0.066 ± 0.003	1048.41 ± 11	1.4878 ± 0.0011	1629.5 ± 3.5	168.37 ± 7.2
313.15 K	0.081 ± 0.003	1045.31 ± 11	1.486 ± 0.0011	1615.6 ± 3.5	125.21 ± 4.4
318.15 K	0.099 ± 0.004	1042.22 ± 10	1.4849 ± 0.0011	1602 ± 3.4	96.78 ± 2.8
323.15 K	0.115 ± 0.005	1039.12 ± 10	1.4836 ± 0.0011	1588.6 ± 3.4	76.23 ± 1.9
328.15 K	0.13 ± 0.005	1036.03 ± 10	1.4815 ± 0.0011	1575.3 ± 3.4	62.63 ± 1.4
333.15 K	0.154 ± 0.006	1032.94 ± 10	1.4804 ± 0.0011	1562.1 ± 3.4	50.43 ± 1.1
338.15 K	0.178 ± 0.007	1029.85 ± 10	1.4786 ± 0.0011	1549.2 ± 3.3	40.68 ± 0.9
343.15 K	0.207 ± 0.008	1026.78 ± 10	1.4776 ± 0.0011	1536.7 ± 3.3	32.76 ± 0.73
